# Laboratory results taken from patent US12263248B2, “Compounds and compositions for intracellular delivery of therapeutic agents” (ModernaTX, Inc., priority 2018, dated 2025).
# Key:
# [1] = Apparent (surface) pKa of the LNP formulation (TNS assay); type: physicochemical; settings: for pKa: Table 1A
# In short: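 Fluorescence of TNS probe added to LNP samples (mRNA 0.04 mg/mL) was read across 21 buffers of pH about 3-12, triplicate per pH. The inflection point of the sigmoidal fluorescence-vs-pH curve, […], gives apparent pKa; method validated in 1× PBS and Tris/sucrose buffer.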
# luciferase (Luc) mRNA [2] = assay: Luc expression, whole body bioluminescence after intravenous administration to mice; type: in vivo; settings: for Total Flux 3 hours / Total Flux 6 hours / Total Flux 24 hours: Luc mRNA; for Fold increase in total body Luc Flux relative to MC3 at 6 h: Table 3A, i.v. administration
# In short: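 Bioluminescence, read as region-of-interest total flux at 3, 6 and 24 h, followed a single 0.5 mg/kg intravenous dose of Luc mRNA-loaded nanoparticles in mice (n=6). Luciferin substrate (200 μL, 15 mg/mL in PBS) was injected intraperitoneally into CD-1 mice 15 minutes ahead of each imaging point.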
# luciferase (Luc) mRNA [3] = assay: Luc expression (total flux) after intramuscular administration; type: in vivo, mice; settings: for Total flux (p/s) 0.01 mpk Dose: Table 5B; for Total flux (p/s) 0.01 mpk Dose / Total flux, 0.001 mpk Dose / Total flux, 0.01 mpk Dose: 6 hours after intramuscular administration; for i.m. Lipid/MC3 0.01 mpk, Luc, 6 h: Table 3B; for Total flux, 0.001 mpk Dose / Total flux, 0.01 mpk Dose: Luc mRNA and H10 mRNA
# Protocol: In order to monitor how effectively various nanoparticle compositions deliver therapeutic and/or prophylactics to targeted cells, different nanoparticle compositions including a particular therapeutic and/or prophylactic (for example, a modified or naturally occurring RNA such as an mRNA) are prepared and administered to rodent populations. Mice are intravenously, intramuscularly, intraarterially, or intratumorally administered a single dose including a nanoparticle composition with a formulation such as those provided in Example 3. In some instances, mice may be made to inhale doses. Dose sizes may range from 0.001 mg/kg to 10 mg/kg, where 10 mg/kg describes a dose including 10 mg of a therapeutic and/or prophylactic in a nanoparticle composition for each 1 kg of body mass of the mouse. A control composition including PBS may also be employed.
# Sample formulations including both modified luciferase (Luc) mRNA and H10 mRNA were prepared and administered intramuscularly and the resulting expression and immunogenicity were evaluated simultaneously. Formulations including compounds according to Formula (I), (IA), (IB), (II), (IIa), (IIb), (IIc), (IId), (IIe), (IIf), (IIg), (III), (VI), (VI-a), (VII), (VIII), (VIIa), (VIIIa), (VIIIb), (VIIb-1), (VIIb-2), (VIIb-3), (VIIc), (VIId), (VIIIc), or (VIIId) were prepared and administered at doses of 0.001 and 0.01 mpk (e.g., doses of 0.0005 mpk of a formulation including Luc mRNA and a formulation including H10 mRNA or doses of 0.005 mpk of a formulation including Luc mRNA and a formulation including H10 mRNA).
# Sample formulations including modified luciferase (Luc) mRNA prepared and administered intramuscularly and the resulting expression and immunogenicity were evaluated simultaneously. Formulations including compounds according to Formula (I), (IA), (IB), (II), (IIa), (IIb), (IIc), (IId), (IIe), (IIf), (IIg), (III), (VI), (VI-a), (VII), (VIII), (VIIa), (VIIIa), (VIIIb), (VIIb-1), (VIIb-2), (VIIb-3), (VIIc), (VIId), (VIIIc), or (VIIId) were prepared and administered at dose of and 0.01 mpk.
# luciferase (Luc) mRNA [4] = assay: Luc expression in liver, lung, spleen and femur 6 hours after intravenous administration; type: in vivo; settings: mice, intravenous, 0.5 mpk
# In short: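 LNP-formulated mRNA given IV to mice (n=3) at 0.5 mpk; at 6 h, bioluminescence imaged ex vivo 15 min after IP D-luciferin (15 mg/mL, 200 μL), organs imaged within 25 min. Values are total flux by region of interest.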
# [5] = Particle size and polydispersity index of nanoparticle compositions (Zetasizer Nano ZS); type: physicochemical; settings: Table 1A; for Size (nm): lipid:DSPC:cholesterol:PEG-DMG 50:10:38.5:1.5 mol %
# In short: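 Values are size and PDI readings from a Zetasizer Nano ZS. Measurements are taken in 1×PBS; zeta potential, by contrast, uses 15 mM PBS.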
# [6] = Encapsulation efficiency of RNA (QUANT-IT RIBOGREEN RNA assay); type: physicochemical; settings: Table 1A
# In short: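 RiboGreen fluorescence (ex ~480, em ~520 nm) compared between intact samples and Triton X-100-lysed samples after 15 min at 37 °C in TE buffer, pH 7.5. Percent free RNA is the blank-corrected intact/disrupted ratio.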
Compound,pKa [1],"Total Flux 3 hours (luciferase (Luc) mRNA [2]; mice, i.v., 0.5 mg/kg)","Total Flux 6 hours (luciferase (Luc) mRNA [2]; mice, i.v., 0.5 mg/kg)",Total flux (p/s) 0.01 mpk Dose (luciferase (Luc) mRNA [3]) [p/s],"Total Flux 24 hours (luciferase (Luc) mRNA [2]; mice, i.v., 0.5 mg/kg)",Total Flux Liver (luciferase (Luc) mRNA [4]),Total Flux Lung (luciferase (Luc) mRNA [4]),Total Flux Spleen (luciferase (Luc) mRNA [4]),PDI [5],Size (nm) [5] [nm],EE (%) [6] [%],"i.m. Lipid/MC3 0.01 mpk, Luc, 6 h (luciferase (Luc) mRNA [3])",also measured
"CCCCCCCCCOC(=O)CCCCCCCN(CCCN)CCCCCCCC(=O)OC(CCCCCCCC)CCCCCCCC [Compound 121, Heptadecan-9-yl 8-((3-aminopropyl)(8-(nonyloxy)-8-oxooctyl)amino)octanoate]",8.50,1.29E+06,1.36E+06,1.06E+06,,,,,,,,,
"CCCCCCCCCOC(=O)CCCCCCCN(C)CCCCCCCC(=O)OC(CCCCCCCC)CCCCCCCC [Compound 123, Heptadecan-9-yl 8-(methyl(8-(nonyloxy)-8-oxooctyl)amino)octanoate]",6.27,4.06E+09,1.81E+10,1.08E+07,5.18E+08,2.50E+08,1.78E+06,4.04E+06,,,,,
"CCCCCCCCCOC(=O)CCCCCCCN(CCCCCCCC(=O)OC(CCCCCCCC)CCCCCCCC)CCCN1C(=O)CNC1=O [Compound 174, Heptadecan-9-yl 8-((3-(2,5-dioxoimidazolidin-1-yl)propyl)(8-(nonyloxy)-8-oxooctyl)amino)octanoate]",6.65,,,,,,,,0.21,84.4,99.0,0.2,
"CCCCCCCCCOC(=O)CCCCCCCN(CCCCCCCC(=O)OC(CCCCCCCC)CCCCCCCC)CCCn1ccc(=O)[nH]c1=O [Compound 114, Heptadecan-9-yl 8-((3-(2,4-dioxo-3,4-dihydropyrimidin-1(2H)-yl)propyl)(8-(nonyloxy)-8-oxooctyl)amino)octanoate]",6.42,8.41E+07,5.98E+07,3.31E+06,,,,,0.11,65.1,98.8,,
"CCCCCCCCCOC(=O)CCCCCCCN(CCCCCCCC(=O)OC(CCCCCCCC)CCCCCCCC)C(CO)CO [Compound 156, Heptadecan-9-yl 8-((1,3-dihydroxypropan-2-yl)(8-(nonyloxy)-8-oxooctyl)amino)octanoate]",6.572,5.68E+09,1.03E+10,,6.53E+07,6.51E+08,1.92E+06,1.82E+07,0.11,68.1,98.47,,"App. pKa ([1]; Table 3F): 6.57; Lipid/MC3 AUC (luciferase (Luc) mRNA [2]; Table 3D, intravenous): 0.61; AUC (p/s * h) (luciferase (Luc) mRNA [2]; Table 3D, intravenous, Luc): 1.170E+011 p/s * h; AUC (p/s * h) (luciferase (Luc) mRNA [3]; Table 3H, intramuscular, Luc): 3.92E+07 p/s * h; Lipid/MC3 AUC (luciferase (Luc) mRNA [3]; Table 3H, intramuscular, Luc): 0.07"
"CCCCCCCCCOC(=O)CCCCCCCN(CCCCCCCC(=O)OC(CCCCCCCC)CCCCCCCC)CCCOC(=O)NC [Compound 175, Heptadecan-9-yl 8-((3-((methylcarbamoyl)oxy)propyl)(8-(nonyloxy)-8-oxooctyl)amino)octanoate]",6.15,,,,,,,,0.16,65.7,94.8,0.1,
"CCCCCCCCCOC(=O)CCCCCCCN(CCO)CCCCCCCC(=O)OC(CC)CCCCCCCC (centres unmarked) [Compound 35, nonyl 8-((2-hydroxyethyl)(8-oxo-8-(undecan-3-yloxy)octyl)amino) octanoate]",6.85,9.82E+08,1.24E+09,,5.09E+07,1.63E+08,2.06E+06,1.23E+08,0.18,151.1,90.82,,"Fold increase in total body Luc Flux relative to MC3 at 6 h (luciferase (Luc) mRNA [2]): 0.028; Total flux, 0.001 mpk Dose (luciferase (Luc) mRNA [3]): 2.45E+06 p/s; Total flux, 0.01 mpk Dose (luciferase (Luc) mRNA [3]): 8.12E+06 p/s"
"CCCCCCCCCOC(=O)CCCCCCCN(CCCCCCCC(=O)OC(CCCCCCCC)CCCCCCCC)CCCN(C)S(C)(=O)=O [Compound 173, Heptadecan-9-yl 8-((3-(N-methylmethylsulfonamido)propyl)(8-(nonyloxy)-8-oxooctyl)amino)octanoate]",6.31,,,,,,,,0.16,75.5,92.89,0.6,
"CCCCCCCCCOC(=O)CCCCCCCN(CCO)CCCCCCCC(=O)OC(CCCC)CCCC [Compound 57, nonan-5-yl 8-((2-hydroxyethyl)(8-(nonyloxy)-8-oxooctyl)amino) octanoate]",,6.69E+06,6.21E+06,,4.16E+05,9.36E+05,3.18E+04,2.47E+06,0.16,128.4,94.33,,"Fold increase in total body Luc Flux relative to MC3 at 6 h (luciferase (Luc) mRNA [2]): 0.00056; flux at all timepoints measured (luciferase (Luc) mRNA [2]; mice, i.v., 0.5 mg/kg, 3, 6 and 24 hour, in words): significantly lower flux; Total flux, 0.001 mpk Dose (luciferase (Luc) mRNA [3]): 1.16E+05 p/s; Total flux, 0.01 mpk Dose (luciferase (Luc) mRNA [3]): 2.23E+05 p/s"
"CCCCCCCCCOC(=O)CCCCCCCN(CCCCCCCC(=O)OC(CCCCCCCC)CCCCCCCC)CCCn1cc(CO)nn1 [Compound 218, Heptadecan-9-yl 8-((3-(4-(hydroxymethyl)-1H-1,2,3-triazol-1-yl)propyl)(8-(nonyloxy)-8-oxooctyl)amino)octanoate]",6.59,,,,,,,,0.21,81.4,98.8,,"Novel lipid/MC3 expression ratio, 6 hr. time point, i.m. Luc (luciferase (Luc) mRNA [3]; intramuscular, relative to MC3 formulation): 1.77"
